Tests used:
[1] = system: Lolium; experiment: Herbicidal pre-emergence action, greenhouse; format: in vivo; details: 1000 g a.i./ha, visual assessment after 2 to 3 weeks, 100% = plants have died
Description: (§1) 1. Herbicidal Pre-emergence Action Seeds of monocotyledonous and dicotyledonous weed and crop plants are placed into sandy loam and covered with soil. The test compounds, formulated in the form of emulsion concentrates (EC), are, in various dosages with a water application rate of 800 l/ha (converted), with wetting agent added, applied to the surface of the covering soil. After the treatment, the pots are placed in a greenhouse and kept under good growth conditions for the test plants. The visual assessment of the emergence damage on the test plants is carried out after a trial period of 2 to 3 weeks by comparison with untreated controls (herbicidal effect in percent (%): 100% effect=the plants have died, 0% effect=like control plants).

[2] = system: Setaria; experiment: Herbicidal pre-emergence action, greenhouse; format: in vivo; details: 1000 g a.i./ha, visual assessment after 2 to 3 weeks, 100% = plants have died
Description: as §1

[3] = system: Echinoclora; experiment: Herbicidal post-emergence action, greenhouse; format: in vivo; details: 1000 g a.i./ha, rated visually after 2 weeks, 100% = plants have died
Description: (§2) 2. Herbicidal Post-emergence Action Seeds of monocotyledonous and dicotyledonous weed and crop plants are placed into sandy loam, covered with soil and cultivated in a greenhouse under good growth conditions. About 2 weeks after sowing, the test plants are treated at the one-leaf stage. The test compounds, formulated as emulsion concentrates (EC), are, in various dosages with a water application rate of 800 l/ha (converted), with wetting agents added, sprayed onto the green parts of the plants. After the test plants have, been kept in the greenhouse under optimum growth conditions for 2 weeks, the effect of the preparations is rated visually in comparison to untreated controls (herbicidal effect in percent (%): 100% effect=the plants have died, 0% effect=like control plants).

[4] = system: Lolium; experiment: Herbicidal post-emergence action, greenhouse; format: in vivo; details: 1000 g a.i./ha, rated visually after 2 weeks, 100% = plants have died
Description: as §2

[5] = system: Setaria; experiment: Herbicidal post-emergence action, greenhouse; format: in vivo; details: 1000 g a.i./ha, rated visually after 2 weeks, 100% = plants have died
Description: as §2

[6] = system: green peach aphid (Myzus persicae); experiment: Myzus test (spray treatment); format: in vivo; details: 100 g/ha, spray treatment of Chinese cabbage discs
Description: Myzus Test—(Spray Treatment) Solvents: 78 parts by weight of acetone 1.5 parts by weight of dimethylformamide Emulsifier: 0.5 part by weight of alkylaryl polyglycol ether To produce a suitable preparation of active compound, 1 part by weight of active compound is mixed with the stated amount of solvents and the stated amount of emulsifier, and the concentrate is diluted with emulsifier-containing water to the desired concentration. Discs of Chinese cabbage (Brassica pekinensis) which are infested by all stages of the green peach aphid (Myzus persicae) are sprayed with a preparation of active compound of the desired concentration. After the desired period of time, the effect in % is determined. 100% means that all aphids have been killed; 0% means that none of the aphids have been killed.

melting point	Structure (SMILES)	herbicidal effect in percent, Lolium [1]	herbicidal effect in percent, Setaria [2]	herbicidal effect in percent, Echinoclora [3]	herbicidal effect in percent, Lolium [4]	herbicidal effect in percent, Setaria [5]	Kill rate in % after 5 d [6]
86 °C	Cc1scnc1-c1c(O)n2n(c1=O)CCCC2 (single isomer, unassigned) [Example I-3-b-2]						
182 °C	Cc1scnc1-c1c(O)n2n(c1=O)CCCC2 (single isomer, unassigned) [Example I-3-b-3]						
	CCCc1cc(-c2ccc(Cl)cc2)nn1-c1c(O)n2n(c1=O)CCCC2 [Example I-3-a-1]	100%	100%	100%	90%	100%	100%

Source: patent publication US7420062B2, “Hetaryl-substituted pyrazolidindione derivatives with pesticidal characteristics” (Bayer CropScience, AG, priority 2003, dated 2008)
